Patent publication US8501911B2, “Methods of reducing inflammation and mucus hypersecretion” (Biomarck Pharmaceuticals, Ltd, priority 1999, dated 2013)
Residues, ends and D or L forms follow the SMILES beside them. *: point of attachment. Myristoyl = CCCCCCCCCCCCCC(=O)*

System: HL-60 clone 15 cells
Assay: Inhibition of eosinophil peroxidase (EPO) release from HL-60 clone 15 cells
Format: cell-based, human
Conditions: at 50 μM of test peptide; 100 nM PMA 2 hours
Excerpt: The human promyelocytic cell line (Fischkoff S A, Graded increase in probability of eosinophilic differentiation of HL-60 promyelocytic leukemia cells induced by culture under alkaline conditions. Leuk. Res., 12:679-686, 1988; Rosenberg H F, Ackerman S J, Tenen D G. Human eosinophil cationic protein: molecular cloning of a cytotoxin and helminthotoxin with ribonuclease activity. J. Exp. Med., 170:163-176, 1989), HL-60 clone 15, is eosinophil-like promyelocytic human cell line which was purchased from American Type Culture Collection (ATCC) Rockville, Md. (catalog #CRL-1964). The cells were maintained in medium consisting of RPMI 1640 with glutamine supplemented with 10% heat inactivated fetal bovine serum (Gibco, Carlsbad, Calif.), 50 IU/mL penicillin, 50 μg/mL streptomycin, and 25 mM HEPES buffer, pH 7.8 at 37° C. in an atmosphere containing 5% CO2. Final differentiation of an eosinophil-like phenotype was initiated by culturing the cells at 5×10^5 cells/mL in the above medium containing 0.5 mM butyric acid (Sigma-Aldrich) for 5 days as previously described by Tiffany H L, Li F, and Rosenberg H F, Hyperglycosylation of eosinophil ribonuclease in a promyelocytic leukemia cell line and in differentiated peripheral blood progenitor cells J. Leukoc. Biol. 58: 49-54, 1995; and by Tiffany H L, Alkhatib G, Combadiere C, Berger E A, and Murphy P M., CC Chemokine receptors are differentially regulated by IL-5 during maturation of eosinophilic HL-60 cells. J. Immunol. 160:1385-1392, 1998. The cells were washed and resuspended at 2.5×10^6 per mL in phenol free RPMI-1640 (Cellgro; Mediatech Inc.). Aliquots of cells in 15 mL plastic tubes were preincubated with indicated concentration of test peptide (dissolved in PBS, pH 7.0) for 10 minutes followed by treatment of the cells with 100 nM PMA for 2 hours. The reaction was terminated by placing the tubes on ice and centrifugation of cells at 400 g for 5 min at 4° C. The eosinophil peroxidase (EPO) activity released by HL-60 clone 15 cells was assayed using TMB according to a previously established technique Paige et al (see above) and by Lacy P, Mahmudi-Azer S, Bablitz B, Hagen S C, Velazquez J R, Man S F, Moqbel R. Rapid mobilization of intracellularly stored RANTES in response to interferon-gamma in human eosinophils. Blood 94:23-32, 1999. Briefly, add 50 μL aliquots of the supernatant to 96-well microtiter plate followed by addition of 100 μL of the tetramethylbenzidine (TMB) substrate solution and incubate at room temperature for 15 minutes. The reaction was terminated by addition of 50 μL of 1.0 M sulfuric acid and absorbance was read at 450 nm in a spectrophotometric microplate reader (Molecular Devices, Sunnyvale, Calif.). The amount of secreted EPO was expressed as percentage of total content using the amount obtained in the same number of triton X-100-lysed cells.
Because standard EPO from HL-60 clone 15 cells was not available to use for quantification, we measured both released and intracellular (from lysed cells) levels of EPO, and expressed the released EPO as a percentage of total (intracellular and released) for each. To measure intracellular EPO in HL-60 clone 15 cells, appropriate aliquots of 0.1% triton X-100-lysed cells were taken for quantification of intracellular EPO as described above. All data are expressed as percentage of control to minimize variability between cultures.

SMILES	% Inhibition EPO [%]
CCCCCCCCCCCCCC(=O)NCC(=O)N[C@H](C(=O)N[C@@H](C)C(=O)N1CCC[C@H]1C(=O)N[C@@H](C)C(=O)N[C@@H](C)C(=O)N[C@@H](CCC(=O)O)C(=O)NCC(=O)N[C@@H](C)C(=O)NCC(=O)N[C@@H](C)C(=O)N[C@@H](CCC(=O)O)C(=O)N[C@H](C(=O)N[C@@H](CCCCN)C(=O)N[C@@H](CCCNC(=N)N)C(=O)N[C@@H](C)C(=O)N[C@@H](CO)C(=O)N[C@@H](C)C(=O)N[C@@H](CCC(=O)O)C(=O)N[C@@H](C)C(=O)N[C@@H](CCCCN)C(=O)N[C@@H](CCC(N)=O)C(=O)N[C@@H](C)C(=O)N[C@@H](Cc1ccccc1)C(=O)O)C(C)C)[C@@H](C)O [RNS peptide, reference compound] (Myristoyl-GTAPAAEGAGAEVKRASAEAKQAF-OH; C-terminus assumed)	0
CCCCCCCCCCCCCC(=O)NCC(=O)N[C@@H](C)C(=O)N[C@@H](CCC(N)=O)C(=O)N[C@@H](Cc1ccccc1)C(=O)N[C@@H](CO)C(=O)N[C@@H](CCCCN)C(=O)N[C@H](C(=O)N[C@@H](C)C(=O)N[C@@H](C)C(=O)N[C@@H](CCCCN)C(=O)NCC(=O)N[C@@H](CCC(=O)O)C(=O)O)[C@@H](C)O [SEQ ID NO: 13, N-myristoyl-GAQFSKTAAKGE] (Myristoyl-GAQFSKTAAKGE-OH; C-terminus assumed)	25.2
CCCCCCCCCCCCCC(=O)NCC(=O)N[C@@H](C)C(=O)N[C@@H](CCC(N)=O)C(=O)N[C@@H](Cc1ccccc1)C(=O)N[C@@H](CO)C(=O)N[C@@H](CCCCN)C(=O)N[C@H](C(=O)N[C@@H](C)C(=O)N[C@@H](C)C(=O)N[C@@H](CCCCN)C(=O)O)[C@@H](C)O [SEQ ID NO: 15, N-myristoyl-GAQFSKTAAK] (Myristoyl-GAQFSKTAAK-OH; C-terminus assumed)	37.4
CCCCCCCCCCCCCC(=O)NCC(=O)N[C@@H](C)C(=O)N[C@@H](CCC(N)=O)C(=O)N[C@@H](Cc1ccccc1)C(=O)N[C@@H](CO)C(=O)N[C@@H](CCCCN)C(=O)N[C@H](C(=O)N[C@@H](C)C(=O)N[C@@H](C)C(=O)N[C@@H](CCCCN)C(=O)NCC(=O)N[C@@H](CCC(=O)O)C(=O)N[C@@H](C)C(=O)N[C@@H](C)C(=O)N[C@@H](C)C(=O)N[C@@H](CCC(=O)O)C(=O)N[C@@H](CCCNC(=N)N)C(=O)N1CCC[C@H]1C(=O)NCC(=O)N[C@@H](CCC(=O)O)C(=O)N[C@@H](C)C(=O)N[C@@H](C)C(=O)N[C@H](C(=O)N[C@@H](C)C(=O)O)C(C)C)[C@@H](C)O [MANS peptide] (Myristoyl-GAQFSKTAAKGEAAAERPGEAAVA-OH; C-terminus assumed)	46.1
